Reference: patent US8647673B2, “Nanoparticles for imaging and treating chlamydial infection” (Wayne State University, priority 2007, dated 2014)
≈ marks a conversion by molar mass, not a printed value. Read-outs that look alike come from different tables or passages of the source.

Test system: C. trachomatis (serovar K)
Test: Microsusceptibility: chlamydial inclusion counts in infected McCoy cells
Assay type: cell-based
Settings: for change in MIC50 with length of treatment: 24 vs 48 hrs incubation, treated immediately following infection; for MIC50: Chlamydia trachomatis; for sensitivity (decrease in inclusion number with increasing dose): drug added 24 or 48 hours post infection, 24 hours in presence of drug
Experimental: FIG. 19. […] McCoy cells were infected with C trachomatis serovar K at MOI=1. […] Drugs were administered either encapsulated in nanoparticles (top panel) or dissolved in growth medium (bottom panel). Chlamydial viability was determined by counting the number of inclusions/well.
Cells and growth of Chlamydia. McCoy cells were seeded onto 96-well microtitre plates at a concentration of 2×10^5 cells per well and allowed to adhere overnight at 37° C. and 5% CO2 in Eagles MEM supplemented with 10% FBS and […] Glutamine. The following day, the cells were inoculated with C. trachomatis (UW-31, serovar K) at 10^4 IFU/well and centrifuged at 2500 rpm for 1 hr at room temperature, followed by incubation at 37° C. for 1 hr. The inoculum was then aspirated and replaced with the appropriate two fold dilution of free drug or encapsulated nanoparticles prepared in antibiotic-free growth media containing 0.06% glucose and 1 μg/ml cyclohexamide. The cells were incubated in the presence of drug for 24 or 48 hrs post infection and then fixed with 100% MeOH. Chlamydial inclusions were detected by immunofluorescence using BioRad Pathfinder® according to the manufacturer's instructions and the plates subsequently stored protected from light at 4° C.
McCoy cells were seeded onto 96-well microtiter plates and then infected the next day with 10^4 IFU/well C. trachomatis (serovar K).
McCoy cells were seeded onto 96-well microtiter plates and then infected the next day with 10^4 IFU/well C. trachomatis (serovar K). […] The mean inclusion number was plotted as a function of concentration.
McCoy cells (2×10^5/well) were seeded onto 96-well microtitre plates and then infected the next day with 10^4 IFU/well C. trachomatis (serovar K). […] The cells were incubated for 24 hours in the presence of drug and then fixed. Based on previous experiments we refined the concentrations ranges for each of the two free drugs and encapsulated nanoparticles.
McCoy cells (2×10^5/well) were seeded onto 96-well microtitre plates and then infected the next day with 10^4 IFU/well C. trachomatis (serovar K). […] The cells were incubated for 24 hours in the presence of drug and then fixed. […] We, therefore, extended the concentration ranges for the two drugs.
McCoy cells (2×10^5/well) were seeded onto 96-well microtitre plates and then infected the next day with 10^4 IFU/well C. trachomatis (serovar K). […] The cells were incubated for 24 hours or 48 hours in the presence of drug and then fixed.
Free and nanoparticle-encapsulated antibiotics added at either t0 (time of infection) or after 24 hr of infection (t24), were compared along with blank nanoparticles as controls.

[1] = 24 h, added immediately following infection, 24 hours in the presence of drug (Example 9), read-out: MIC50
[2] = treated individually, MOI=1, drug added at overlay, nanoparticles not conjugated to folic acid (Example 16), read-out: MIC50

change in MIC50 with length of treatment	MIC50 [1]	MIC50 (24 h, drug added at 24 hpi and left on for 24 hours, read-out: MIC50)	MIC50 (read-out: MIC50 of rifampin, in the presence of 0.016 μg/ml azithromycin (Example 16))	MIC50 [2]	MIC50 (in the presence of 0.004 μg/ml rifampin (Example 16), read-out: MIC50 of azithromycin)	Compound	sensitivity (decrease in inclusion number with increasing dose)
no significant change in MIC50	0.005 µg/mL	> 0.08 µg/mL	0.002 µg/mL	0.008 µg/mL (≈ 0.00972 µM)	–	CO[C@H]1/C=C/O[C@@]2(C)Oc3c(C)c(O)c4c(O)c(c(/C=N/N5CCN(C)CC5)c(O)c4c3C2=O)NC(=O)/C(C)=C\C=C\[C@H](C)[C@H](O)[C@@H](C)[C@@H](O)[C@@H](C)[C@H](OC(C)=O)[C@@H]1C [rifampin]	marked insensitivity
no significant change in MIC50	0.04 µg/mL	–	–	0.032 µg/mL (≈ 0.0427 µM)	0.016 µg/mL	CC[C@H]1OC(=O)[C@H](C)[C@@H](O[C@H]2C[C@@](C)(OC)[C@@H](O)[C@H](C)O2)[C@H](C)[C@@H](O[C@@H]2O[C@H](C)C[C@H](N(C)C)[C@H]2O)[C@](C)(O)C[C@@H](C)CN(C)[C@H](C)[C@@H](O)[C@]1(C)O [azithromycin]	marked insensitivity
